Patent EP0385952A2, “Use of a naphthalenmethanamino derivative as antiinflammatory agent and pharmaceutical compositions containing it” (SANDOZ AG, priority 1989, dated 1990)
Like-named read-outs stand apart in the source and are kept apart here. Marks after values point to notes of the source that are not given here.

What was measured:
[1] = tested on: lactate dehydrogenase release; assay: Cytotoxicity: release of lactate dehydrogenase; assay type: cell-based; conditions: cytotoxicity control of the in vitro assays
Procedure: (§1) Macrophages 10 to 14 days old isolated from the bone marrow of mice are incubated in monolayers with the test compound in the presence of Concanavalin A (Con A) (100 µg/ml) as soluble stimulant. After 24 hours the cell-free medium is collected and macrophage activation is investigated biochemically as the extent of plasminogen activator release, assayed photometrically as the plasminogen-dependent amidolysis of D-Val-Phe-Lys-4-nitroanilide according to the principles described in J.C. Drapier et al., Biochemie 61 (1979) 463-471. Cell viability is assayed by measurement of lactate dehydrogenase release according to the method of H.U. Bergmeyer and E. Bernt, Methoden der Enzymatischen Analyse, 3. Auflage, Verlag Chemie (1974) 612-615, adapted as a kinetic assay using microtiter plates. All cultures are checked microscopically for qualitative morphological modification.
The test compound is added in various concentrations to monolayers of OF₁-mouse resident peritoneal macrophages isolated as described in J. Schnyder and M. Baggiolini, J. Exp. Med. 148 (1978) 435-450. […] The supernatants are then analysed by radioimmunoassay procedures for thromboxane B₂, prostaglandin E₂ and leukotriene C₄. Lactate dehydrogenase activities in the medium and cell lysates are also measured as an indication of cell toxicity.

HACAT cell line = assay: Modulation of keratinocyte gene expression and NAP1/IL-8 protein release; assay type: cell-based, human; conditions: for inhibition at 10 µM: Homo sapiens, HaCaT, ELISA
Procedure: The HACAT cell line is grown in 200 ml culture flasks in KGM medium (Clonetics) at 0.06 mM Ca until 50 % confluency. Thereafter cells are starved in KBM medium (Clonetics) for 2 days. The resulting preconfluent cells are then stimulated with αTNF (Genzyme, 500 or 1000 U/ml) or IL-1α (Boehringer, 200 U/ml) obtained from stock solutions and further diluted in KBM medium for the indicated times in the presence of test substance. At the end of the incubation period total cellular RNA is extracted as described above under 1.1.5. 20 µg RNA is run on 1 % formaldehyde agarose gels and transferred onto hybond N filters (Amersham) in a northern capillary transfer using 20xSSC. The filters are then baked for 2 hours and prehybridized for 4 hours. Hybridization (16 hours) and washing are performed at 65°C using oligonucleotide probes for NAP1/IL-8. For control, blots are rehybridised with an actin probe (Oncor). Concentrations of NAP1/IL-8 in the supernatants of the keratinocyte cultures are determined using a solid phase double ligand ELISA.

guinea pigs = assay: UV-erythema model (2.2.); assay type: in vivo; conditions: therapeutic, test concentration 5.0 %, topical, erythema score
Procedure: Female guinea pigs weighing 250-300 g are used. On the day before experiment they are shorn on both flanks followed by a final dry shaving without skin irritation two hours before UV exposure. Two circular areas (10 mm diameter) on each flank are exposed 10 seconds to ultraviolet rays from […] at an intensity of 16 mW/cm² (UVA) and 500 mW/cm² (UVB). Drugs are administered topically immediately after exposure to UV light in a volume of 50 µl of 25 % ethanol and 75 %polyethylenglycol-400 to the irradiated skin areas on the right flank. Two areas on the left flank serve as vehicle control. Erythema is assessed visually 3.5 and 5.5 hours after irradiation and results expressed in scores. Changes in erythema intensity after drug administration are expressed as percentages of the scored erythema intensity in vehicle-treated areas.

mice = assay: TPA-induced pinnal swelling in mice (irritant contact dermatitis, 2.1.2.); assay type: in vivo; conditions: therapeutic, topical, pinnal weight after 6 hours
Procedure: Skin irritation with arachidonic acid or cantharidin is often used to experimentally induce inflammation in order to evaluate the anti-inflammatory activity of a compound [see e.g. Inflammation 8 (1984) 134-135; 10 (1986) 205-214]. NMRI mice (8 animals per group) receive 10 µl of a 10 % solution of arachidonic acid [J.M. Young et al., J. Invest. Derm. 82 (1986) 367-371] in acetone or, respectively, 0.08 % cantharidin [K.E. Swingle et al., Arch. Int. Pharmacodyn. Ther. 254 (1981) 168-176] in acetone applied to the medial and lateral surface of the right external ear. Treatment is performed either prophylactically 30 minutes before irritation (arachidonic acid) or, respectively, either simultaneously with the application of irritant solution or therapeutically 20 minutes after irritation (cantharidin), by a single epicutaneous application of the test compound dissolved in a mixture of N,N-dimethylacetamide, acetone and alcohol (2:2:4). The evaluation of the test group is effected by comparison with a control group of animals having received on the right ear lobe only the carrier substance or the irritant solution. The animals are killed 1.5 hours (arachidonic acid) or, respectively, 17 hours (cantharidin) after application of the irritant and efficacy in assessed by determination of the differences in auricular weight. Differences in weights (D) of right (involved) and left (uninvolved) pinnae of animals treated with test compound and arachidonic acid or cantharidin (T-group) are compared with differences in mice treated with arachidonic acid only or cantharidin only (C-group). Efficacy (%) is calculated according to the equation: [formula]
This model is similar to the above (see 2.1.1.). Skin inflammation is induced with 15 µl of 0.23 % croton oil in a mixture of dimethylacetamide, acetone and ethanol (2:4:4), or with 10 µl of 0.005 % TPA [12-O-tetradecanoylphorbol-13-acetate; Sigma] prepared in acetone with 0.5 % dimethylsulfoxide. Topical treatment is performed either simultaneously with the irritation (croton oil) or 20 minutes after the application (TPA). The test compound is prepared in DAE. Efficacy is assessed 6 hours after onset of irritation by determination of the auricular weight as described above.

[2] = tested on: Macrophages isolated from the bone marrow of mice; assay: Inhibition of Con A-stimulated plasminogen activator release; assay type: cell-based; conditions: Mus musculus, Macrophage; Con A 100 µg/ml, 24 hours; read-out: IC₅₀, Con A-stimulated plasminogen activator release
Procedure: as §1

human neutrophils = assay: Zymosan-stimulated superoxide release; assay type: cell-based; conditions: Neutrophil, read-out: IC₅₀ for zymosan-stimulated superoxide release

Q: Which “release of lactate dehydrogenase” value [1] does the source give for CN(C/C=C/c1ccc(O)cc1)Cc1cccc2ccccc12 [compound of the invention, (E)-N-methyl-N-[3-(4-hydroxyphenyl)-2-propenyl]-1-naphthalene-methanamine] here?
A: Its value is “below 10%”.

Q: What about the inhibition at 10 µM (HACAT cell line; read-out: inhibition of IL-1α-stimulated release of NAP1/IL-8) of the same compound?
A: Its inhibition at 10 µM is 40%.

Q: And the inhibition at 10 µM (HACAT cell line; read-out: inhibition of αTNF-stimulated release of NAP1/IL-8)?
A: The inhibition at 10 µM was 90%.

Q: And the “αTNF-induced NAP1/IL-8 mRNA accumulation decreased to” value (HACAT cell line; remaining level, 20.0 µM)?
A: The value was 60%.

Q: What about the “Efficacy (%)” value (guinea pigs) of the same compound?
A: Its value is 27%.

Q: What about the “Efficacy (%)” value (mice; test concentration 1.2 %) of the same compound?
A: Its value is 51%.

Q: What about the “Efficacy (%)” value (mice; test concentration 3.6 %) of the same compound?
A: Its value is 60*** %.

Q: What about the IC50 [2] of the same compound?
A: Its IC50 is 1800 nM.

Q: What about the IC50 (human neutrophils) of the same compound?
A: The IC50 was greater than 100000 nM.
